{"source": "patent US20220401429A1", "about": "“USE OF ANAMORELIN TO TREAT CANCER-RELATED FATIGUE” (Helsinn Healthcare SA, priority 2021, published 2022)", "key": {"[1]": {"test_system": "patients with advanced cancer", "experiment": "Multidimensional Fatigue Symptom Inventory-Short Form (MFSI-SF), Example 1 study", "type": "in vivo, human", "conditions": "Day 86 (N = 8), change from baseline, 100 mg oral daily + physical activity + nutritional counseling", "protocol": "(§1) In this single arm study, 38 patients were intended for treatment with anamorelin for 6 weeks with an optional extension phase of 6 more weeks based on tolerability and safety and patient willingness. Patients received anamorelin 100 mg tablets and physical activity for 6 weeks for the intervention phase. Patients took 1 tablet orally while fasting (at least 1 hour before a meal).\n(§2) Secondary objectives of the study were to examine the effects of anamorelin and standardized physical activity and nutritional counseling on Health-related quality of life and patient reported outcomes as measured by The Multidimensional Fatigue Symptom Inventory-Short Form[MFSI-SF], PROMIS-Fatigue, Hospital Anxiety Depression Scale (HADS), Edmonton Symptom Assessment Scale (ESAS), Functional Assessment of Cancer Therapy (FACT-G), and its Functional Assessment of Anorexia/Cachexia Treatment (FAACT) subscale in these patients.\nMFSI-SF consists of 30 items designed to assess the multidimensional nature of fatigue(Stein, Jacobsen et al. 2004). Ratings are summed to obtain scores for 5 subscales (general fatigue, physical fatigue, emotional fatigue, mental fatigue, and vigor)."}, "[2]": {"test_system": "patients with advanced cancer", "experiment": "PROMIS-Fatigue, Example 1 study", "type": "in vivo, human", "conditions": "change from baseline, 100 mg oral daily + physical activity + nutritional counseling", "protocol": "as §1, §2\nPROMIS measures key symptoms and health concepts applicable to advanced cancer, enabling efficient and interpretable clinical trial research and clinical practice application of patient-reported outcomes (PROs) (Rothrock, Hays et al. 2010, Yost, Eton et al. 2011)."}, "[3]": {"test_system": "patients with advanced cancer", "experiment": "FACT-G, Example 1 study", "type": "in vivo, human", "conditions": "change from baseline, 100 mg oral daily + physical activity + nutritional counseling", "protocol": "as §1, §2\nThe FACT-G is a 27-item compilation of general questions divided into four primary domains: Physical Well-Being, Social/Family Well-Being, Emotional Well-Being, and Functional Well-Being. It is appropriate for use in patients with any form of cancer, and extensions of it have been used and validated in other chronic illness conditions as well (Cella, Tulsky et al. 1993, Webster, Cella et al. 2003). The FACT-G is the first 2 pages of FACIT-F."}, "[4]": {"test_system": "patients with advanced cancer", "experiment": "FAACT Anorexia/Cachexia subscale, Example 1 study", "type": "in vivo, human", "conditions": "change from baseline, 100 mg oral daily + physical activity + nutritional counseling", "protocol": "as §1, §2\nThe FAACT-Anorexia/Cachexia subscale is a 12-item symptom-specific subscale designed to measure patients' additional concerns about their anorexia/cachexia during the previous 7 days. The FAACT has internal consistency and a reliability coefficient (Cronbach's alpha) of 0.88 for the 12 components (Ribaudo, Cella et al. 2000). Patients rate the intensity of anorexia/cachexia and its related symptoms on a 0-4 scale like that used in the FACIT-F."}, "[5]": {"test_system": "patients with advanced cancer", "experiment": "Pittsburgh Sleep Quality Index (PSQI), Example 1 study", "type": "in vivo, human", "conditions": "100 mg oral daily + physical activity + nutritional counseling", "protocol": "as §1"}, "[6]": {"test_system": "patients with advanced cancer", "experiment": "Godin Leisure-Time physical activity questionnaire, Example 1 study", "type": "in vivo, human", "conditions": "Day 86 (N = 8), change from baseline, 100 mg oral daily + physical activity + nutritional counseling", "protocol": "as §1\n(§3) Measures: We used the 30 second chair stand test, six-minute walk test, and an accelerometer. A self-report exercise questionnaire, the Godin Leisure-Time physical activity questionnaire, was used to complement the objective measures. IM Systems-three dimensional accelerometers (“Biotrainer-Pro”) was used to objectively measure physical activity.\n(§4) Physical Performance Tests: The 30 second chair stand test, 6-minute walk test, and Godin Leisure-Time physical activity questionnaire were administered at baseline and on Day 43. The 30 second sit-to-stand task assessed lower body strength (Rikli and Jones 1999).\nThe Godin Leisure-Time physical activity questionnaire asks participants how many times per week on average they participate in strenuous, moderate and mild exercises for more than 15 minutes during their free time. […]"}, "[7]": {"test_system": "patients with advanced cancer", "experiment": "Global Symptom Evaluation, Example 1 study", "type": "in vivo, human", "conditions": "time point not clearly stated; 100 mg oral daily + physical activity + nutritional counseling", "protocol": "as §1"}, "[8]": {"experiment": "Weight and body composition (InBody), Example 1 study", "type": "in vivo, human", "conditions": "Day 43, 28 evaluable patients, 100 mg oral daily + physical activity + nutritional counseling", "protocol": "as §1\n(§5) Exploratory objectives of the study were to explore the effects of anamorelin and standardized physical activity and nutritional counseling on muscle function (as measured by the 30 second chair stand test, 6 minute walk test, day time activity (accelerometer), body composition (as measured by INBODY), and Resting Energy Expenditure (measured by indirect calorimetry)\nBody Composition: All patients were assessed for lean body mass, skeletal muscle mass, extracellular water/total body water body, fat mass, body fat mass, and whole body phase angle evaluation (using the InBody body composition scale) (Dalal, Hui et al. 2012, Del Fabbro, Parsons et al. 2012, Yennurajalingam, Willey et al. 2012, Hui, Bansal et al. 2014). Resting energy expenditure was assessed at baseline and Day 43±3 days, and at the end of 6 weeks of the extension phase."}, "IGF-1": {"test_system": "IGF-1", "experiment": "IGF-1 level, Example 1 study", "type": "in vivo, human", "conditions": "Day 43, 28 evaluable patients, 100 mg oral daily + physical activity + nutritional counseling", "protocol": "as §1"}, "[9]": {"test_system": "patients with advanced cancer", "experiment": "Physical performance tests (30 second chair stand test, 6-minute walk test), Example 1 study", "type": "in vivo, human", "conditions": "Day 43 vs baseline, 100 mg oral daily + physical activity + nutritional counseling", "protocol": "as §1, §5\nMeasures: We used the 30 second chair stand test, six-minute walk test, and an accelerometer. A self-report exercise questionnaire, the Godin Leisure-Time physical activity questionnaire, was used to complement the objective measures. […]\nas §4\nIn the six-minute walk test, participants were asked to walk as fast and as far as they can for six minutes, and the distance walked was measured. […]"}, "[10]": {"test_system": "patients with advanced cancer", "experiment": "Daytime activity by accelerometer (actigraphy), Example 1 study", "type": "in vivo, human", "conditions": "100 mg oral daily + physical activity + nutritional counseling", "protocol": "as §1, §5, §3"}, "[11]": {"test_system": "patients with advanced cancer", "experiment": "Adverse events, Example 1 study", "type": "in vivo, human", "conditions": "100 mg oral daily, 6 weeks with optional 6 week extension", "protocol": "as §1"}, "[12]": {"test_system": "cachectic patients with non-small cell lung cancer", "conditions": "cited from earlier work"}, "[13]": {"test_system": "Patients With Non—Small Cell Lung Cancer and Cachexia", "conditions": "study by Katakami and Uchino et al. 2018; cited from earlier work"}, "[14]": {"conditions": "ROMANA 1 and ROMANA 2, both studies"}}, "note": "Where two headings read alike, the source gives them in different places."}
{"compound": "CN(C)N(C)C(=O)[C@@]1(Cc2ccccc2)CCCN(C(=O)[C@@H](Cc2c[nH]c3ccccc23)NC(=O)C(C)(C)N)C1", "note": "[anamorelin]", "values": [{"measurement": "MFSI-SF Mental fatigue, change, Mean (±SD)", "setting": "[1]", "value": "−2.25 (±3.62),"}, {"measurement": "MFSI-SF Physical fatigue, change, Mean (±SD)", "setting": "[1]", "value": "−1.88 (±3.98),"}, {"measurement": "MFSI-SF Total, change, Mean (±SD)", "setting": "[1]", "value": "−11.75 (±14.22),"}, {"measurement": "MFSI-SF Vigor, change, Mean (±SD)", "setting": "[1]", "value": "2.75 (±3.01),"}, {"measurement": "PROMIS-Fatigue, change, Mean (±SD)", "setting": "[2]; Day 15 (N = 28)", "value": "−2.74 (±6.12),"}, {"measurement": "PROMIS-Fatigue, change, Mean (±SD)", "setting": "[2]; Day 29 (N = 28)", "value": "−3.64 (±8.22),"}, {"measurement": "PROMIS-Fatigue, change, Mean (±SD)", "setting": "[2]; Day 86 (N = 8)", "value": "−6.36 (±6.32),"}, {"measurement": "FACT-G Total, change, Mean (±SD)", "setting": "[3]; Day 15 (N = 28)", "value": "0.59 (±9.17),"}, {"measurement": "FACT-G Total, change, Mean (±SD)", "setting": "[3]; Day 29 (N = 28)", "value": "1.31 (±8.97),"}, {"measurement": "FACT-G Total, change, Mean (±SD)", "setting": "[3]; Day 43 (N = 28)", "value": "−1.10 (±10.71),"}, {"measurement": "FACT-G Total, change, Mean (±SD)", "setting": "[3]; Day 86 (N = 8)", "value": "4.54 (±7.65),"}, {"measurement": "FAACT-A/CS Total, change, Mean (±SD)", "setting": "[4]; Day 15 (N = 28)", "value": "1.70 (±4.89),"}, {"measurement": "FAACT-A/CS Total, change, Mean (±SD)", "setting": "[4]; Day 29 (N = 28)", "value": "4.53 (±5.54),"}, {"measurement": "FAACT-A/CS Total, change, Mean (±SD)", "setting": "[4]; Day 86 (N = 8)", "value": "−5.86 (±3.72),"}, {"measurement": "PSQI (N = 15), change, Mean (±SD)", "setting": "[5]; Day 29, change from baseline", "value": "−0.09 (±4.18),"}, {"measurement": "PSQI (N = 15), change, Mean (±SD)", "setting": "[5]; Day 43, change from baseline", "value": "−0.09 (±2.12),"}, {"measurement": "PSQI (N = 15), change, Mean (±SD)", "setting": "[5]; Day 86, change from baseline", "value": "−0.50 (±2.95),"}, {"measurement": "Godin Leisure Test Total, change, Mean (±SD)", "setting": "[6]", "value": "−0.67 (±6.35),"}, {"measurement": "Global Symptom Evaluation: About the same N (%)", "setting": "[7]", "value": "9 (36%)"}, {"measurement": "Global Symptom Evaluation: Better N (%)", "setting": "[7]", "value": "13 (52%)"}, {"measurement": "Global Symptom Evaluation: Worse N (%)", "setting": "[7]", "value": "3 (12%)"}, {"measurement": "Lean Body Mass improvement from baseline, mean (SD)", "setting": "[8]", "value": "1.54 (±1.85)"}, {"measurement": "Weight improvement from baseline, mean (SD)", "setting": "[8]", "value": "1.81 (±2.63) kg"}, {"measurement": "IGF-1 change from baseline, mean (SD)", "setting": "IGF-1", "value": "36.50 (±48.76)"}, {"measurement": "Improvement in the physical performance outcomes", "setting": "[9]", "value": "no significant improvement"}, {"measurement": "Improvement in mean daytime activity (actigraphy activity measure)", "setting": "[10]", "value": "no significant improvement"}, {"measurement": "Severe (≥grade 3) adverse events related to the study drug", "setting": "[11]", "value": "No severe (≥grade 3) adverse events"}, {"measurement": "Effect size for improvement in CRF", "setting": "[12]; ROMANA 1", "value": 0.16}, {"measurement": "Effect on fatigue using the FACIT-F", "setting": "[12]; [14]", "value": "unable to detect a significant effect"}, {"measurement": "Effect on strength measured by handgrip strength", "setting": "[12]; [14]", "value": "unable to detect a significant effect"}, {"measurement": "Effect size for improvement in CRF", "setting": "[12]; ROMANA 2", "value": 0.008}, {"measurement": "Treat fatigue and improve handgrip strength, pooled post-hoc analysis", "setting": "[12]; higher BMIs", "value": "ineffective"}, {"measurement": "Treat fatigue and improve handgrip strength, pooled post-hoc analysis", "setting": "[12]; patients with BMI less than 20 kg/m^2", "value": "effective"}, {"measurement": "Effect size for improvement in CRF", "setting": "[13]", "value": 0.057}]}
